Test results reported in ChEMBL document CHEMBL3856276, “Design, Synthesis, and Biological Evaluation of Novel Tetrahydroprotoberberine Derivatives (THPBs) as Selective α1A-Adrenoceptor Antagonists” (J Med Chem, 2016).

Legend:
[1] = Half life in rat at 20 mg/kg, ig via oral gavage; format: ADME, organism-based; details: in vivo
Rattus norvegicus [2] = experiment: Increase in voided volume in po dosed Sprague-Dawley rat benign prostatic hyperplasia model administered 20 mins followed by distilled watering loading measured for 2 hrs; format: functional; details: read-out: MED
[3] = Tmax in rat at 20 mg/kg, ig via oral gavage; format: ADME, organism-based; details: in vivo
[4] = Cmax in rat at 20 mg/kg, ig via oral gavage; format: ADME, organism-based; details: in vivo
[5] = AUC (0 to t) in rat at 10 mg/kg, iv; format: ADME, organism-based; details: in vivo
[6] = Mean residence time in rat at 10 mg/kg, iv; format: ADME, organism-based; details: in vivo
[7] = biological target: T1, Alpha-1B adrenergic receptor (Rattus norvegicus, UniProt P15823); experiment: Antagonist activity at alpha1B adrenoceptor in Sprague-Dawley rat aorta assessed as inhibition of norepinephrine-induced smooth muscle contraction after 20 mins
T1 sequence (P15823 whole entry): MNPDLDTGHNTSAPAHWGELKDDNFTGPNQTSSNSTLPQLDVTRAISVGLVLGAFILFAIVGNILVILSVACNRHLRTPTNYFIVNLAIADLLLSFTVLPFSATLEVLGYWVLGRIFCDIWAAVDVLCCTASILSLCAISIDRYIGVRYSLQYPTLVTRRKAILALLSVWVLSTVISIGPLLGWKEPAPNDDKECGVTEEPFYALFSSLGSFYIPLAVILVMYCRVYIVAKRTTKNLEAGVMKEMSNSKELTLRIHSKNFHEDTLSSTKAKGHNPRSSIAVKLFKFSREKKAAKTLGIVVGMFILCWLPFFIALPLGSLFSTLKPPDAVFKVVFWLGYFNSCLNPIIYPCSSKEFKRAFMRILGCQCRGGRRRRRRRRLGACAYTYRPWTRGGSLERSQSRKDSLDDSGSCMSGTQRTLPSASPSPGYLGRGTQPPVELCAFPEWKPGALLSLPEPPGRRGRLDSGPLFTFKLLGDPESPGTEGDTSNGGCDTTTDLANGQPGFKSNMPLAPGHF

Mus musculus [8] = experiment: Acute toxicity in Kunming mouse assessed as effect on fur colour at 500 mg/kg, po administered as single dose measured over 7 days; format: organism-based; details: in vivo, 168 h
Rattus norvegicus [9] = experiment: Inhibition of micturition frequency in po dosed Sprague-Dawley rat benign prostatic hyperplasia model administered 20 mins followed by distilled watering loading measured for 2 hrs; format: functional; details: read-out: MED
[10] = Cmax in rat at 10 mg/kg, iv; format: ADME, organism-based; design: dose 10 mg/kg, route intravenous; details: in vivo
[11] = Selectivity ratio of IC50 for alpha1B adrenoceptor in Sprague-Dawley rat aorta to IC50 for alpha1A adrenoceptor in Sprague-Dawley rat urethra
[12] = Oral bioavailability in rat at 20 mg/kg, ig via gavage; format: ADME, organism-based; details: in vivo
Mus musculus [13] = experiment: Acute toxicity in Kunming mouse assessed as effect on behavior at 500 mg/kg, po administered as single dose measured over 7 days; format: organism-based; details: in vivo, 168 h
[14] = AUC (0 to infinity) in rat at 20 mg/kg, ig via oral gavage; format: ADME, organism-based; details: in vivo
[15] = biological target: T2, Alpha-1B adrenergic receptor (Homo sapiens, UniProt P35368)
T2 sequence (P35368 whole entry): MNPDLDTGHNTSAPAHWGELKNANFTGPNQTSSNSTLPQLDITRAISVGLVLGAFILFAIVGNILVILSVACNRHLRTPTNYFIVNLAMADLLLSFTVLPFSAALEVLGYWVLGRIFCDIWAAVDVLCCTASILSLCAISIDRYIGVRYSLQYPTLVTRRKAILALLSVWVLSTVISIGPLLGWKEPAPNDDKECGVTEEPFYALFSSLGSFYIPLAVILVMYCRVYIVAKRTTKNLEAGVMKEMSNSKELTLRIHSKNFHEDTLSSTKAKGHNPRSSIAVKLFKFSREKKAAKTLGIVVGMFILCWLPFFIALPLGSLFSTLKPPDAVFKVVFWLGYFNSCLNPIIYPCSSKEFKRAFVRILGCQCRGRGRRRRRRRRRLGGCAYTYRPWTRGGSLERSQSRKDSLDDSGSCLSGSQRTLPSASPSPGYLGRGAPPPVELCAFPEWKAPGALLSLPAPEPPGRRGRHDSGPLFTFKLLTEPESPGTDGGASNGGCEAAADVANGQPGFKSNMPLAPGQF
Description: Antagonist activity at human full-length N-terminal SNAP-tagged alpha1B adrenoceptor expressed in HEK293 cells assessed as inhibition of agonist-induced calcium mobilization preincubated for 10 mins followed by agonist addition by fluo-4 AM dye-based assay

[16] = Apparent clearance in rat at 10 mg/kg, iv; format: ADME, organism-based; details: in vivo, read-out: CL(app) (converted)
[17] = biological target: Voltage-gated inwardly rectifying potassium channel KCNH2 (Homo sapiens, UniProt Q12809); experiment: Inhibition of human ERG
[18] = Mean residence time in rat at 20 mg/kg, ig via oral gavage; format: ADME, organism-based; details: in vivo
Homo sapiens = organism: Homo sapiens; experiment: Selectivity ratio of IC50 for human full-length N-terminal SNAP-tagged alpha1D adrenoceptor to IC50 for human full-length N-terminal SNAP-tagged alpha1A adrenoceptor
[19] = biological target: T3, Alpha-1D adrenergic receptor (Homo sapiens, UniProt P25100)
T3 sequence (P25100 whole entry): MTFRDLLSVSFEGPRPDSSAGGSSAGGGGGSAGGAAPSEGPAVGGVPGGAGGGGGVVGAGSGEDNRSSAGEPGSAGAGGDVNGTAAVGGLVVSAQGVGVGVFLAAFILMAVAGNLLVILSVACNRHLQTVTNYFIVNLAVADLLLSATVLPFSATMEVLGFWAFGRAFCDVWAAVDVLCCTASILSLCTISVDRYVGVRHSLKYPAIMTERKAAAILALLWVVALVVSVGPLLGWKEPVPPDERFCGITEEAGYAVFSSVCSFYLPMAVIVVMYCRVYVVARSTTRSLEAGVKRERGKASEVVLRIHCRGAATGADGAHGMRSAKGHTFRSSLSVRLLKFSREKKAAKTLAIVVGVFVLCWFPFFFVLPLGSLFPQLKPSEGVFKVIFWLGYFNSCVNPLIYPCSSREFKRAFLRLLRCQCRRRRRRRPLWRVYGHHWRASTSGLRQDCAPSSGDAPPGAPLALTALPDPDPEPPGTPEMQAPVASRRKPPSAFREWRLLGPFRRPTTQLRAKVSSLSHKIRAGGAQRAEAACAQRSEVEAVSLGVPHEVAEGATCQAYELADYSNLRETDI
Description: Antagonist activity at human full-length N-terminal SNAP-tagged alpha1D adrenoceptor expressed in HEK293 cells assessed as inhibition of agonist-induced calcium mobilization preincubated for 10 mins followed by agonist addition by fluo-4 AM dye-based assay

[20] = Tmax in rat at 10 mg/kg, iv; format: ADME, organism-based; details: in vivo
[21] = AUC (0 to infinity) in rat at 10 mg/kg, iv; format: ADME, organism-based; design: dose 10 mg/kg, time infinity, route intravenous; details: in vivo

Sequence of Voltage-gated inwardly rectifying potassium channel KCNH2 (Q12809 whole entry): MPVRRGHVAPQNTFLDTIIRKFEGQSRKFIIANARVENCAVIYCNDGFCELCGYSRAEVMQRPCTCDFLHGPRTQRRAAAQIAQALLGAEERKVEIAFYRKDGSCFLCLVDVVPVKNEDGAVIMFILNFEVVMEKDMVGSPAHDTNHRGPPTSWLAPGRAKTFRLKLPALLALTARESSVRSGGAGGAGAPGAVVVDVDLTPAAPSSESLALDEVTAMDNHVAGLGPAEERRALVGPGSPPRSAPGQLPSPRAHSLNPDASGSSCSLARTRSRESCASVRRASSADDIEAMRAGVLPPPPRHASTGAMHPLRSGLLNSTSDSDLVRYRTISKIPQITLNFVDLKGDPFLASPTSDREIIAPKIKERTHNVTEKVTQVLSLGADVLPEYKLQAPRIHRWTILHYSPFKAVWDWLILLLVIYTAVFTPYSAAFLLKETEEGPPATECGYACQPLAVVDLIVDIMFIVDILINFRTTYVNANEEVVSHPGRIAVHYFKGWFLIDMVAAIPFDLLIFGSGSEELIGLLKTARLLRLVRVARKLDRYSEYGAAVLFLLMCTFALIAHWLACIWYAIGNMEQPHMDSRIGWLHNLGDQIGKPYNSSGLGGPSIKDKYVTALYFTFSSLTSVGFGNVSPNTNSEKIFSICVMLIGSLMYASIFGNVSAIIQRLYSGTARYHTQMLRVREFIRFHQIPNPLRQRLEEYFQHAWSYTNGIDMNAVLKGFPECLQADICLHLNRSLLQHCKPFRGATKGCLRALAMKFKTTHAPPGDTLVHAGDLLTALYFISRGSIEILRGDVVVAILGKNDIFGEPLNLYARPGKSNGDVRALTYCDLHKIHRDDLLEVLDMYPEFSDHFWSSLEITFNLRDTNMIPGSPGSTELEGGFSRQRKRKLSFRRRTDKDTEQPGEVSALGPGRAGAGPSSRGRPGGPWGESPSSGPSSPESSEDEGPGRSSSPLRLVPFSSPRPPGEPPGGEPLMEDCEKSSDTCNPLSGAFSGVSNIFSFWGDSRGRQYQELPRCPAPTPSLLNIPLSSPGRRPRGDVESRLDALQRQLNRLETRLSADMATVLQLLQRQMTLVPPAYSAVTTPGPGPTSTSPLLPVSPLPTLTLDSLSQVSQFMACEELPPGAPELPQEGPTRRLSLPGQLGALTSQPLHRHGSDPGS

## COc1ccc2[nH]c3c(c2c1)C[C@H]1c2cc4c(cc2CCN1C3)OCO4
[1]
  half-life: 1.18 h
Rattus norvegicus [2]
  minimal effective dose: 3 mg/kg
[3]
  Tmax: 1 h
[4]
  Cmax: 684 ng/mL
[5]
  AUC(0-t): 1870 ng·h/mL
[6]
  MRT: 1.79 h
[7]
  IC50: > 1 µM
Mus musculus [8]
  Activity: Non-Toxic
Rattus norvegicus [9]
  minimal effective dose: 3 mg/kg
[10]
  Cmax: 855 ng/mL
[11]
  Ratio IC50: >2083
[12]
  bioavailability: 60.9%
Mus musculus [13]
  Activity: Non-Toxic
[14]
  AUC(0-inf): 2280 ng·h/mL
[15]
  IC50: > 10 µM
[16]
  clearance: 96.5 mL/min/kg
[17]
  IC50: 13.2 µM
[18]
  MRT: 2.52 h
Homo sapiens
  Ratio IC50: 19.6
[19]
  IC50: 0.251 µM
[20]
  Tmax: 0.25 h
[21]
  AUC(0-inf): 1880 ng·h/mL
